The source of these data is patent US6008356A, “Pharmaceutically available protoberberine salts derivatives, and protoberberine salts derivatives, and protoberberine derivatives and salts thereof” (priority 1998, dated 1999).

Broadly, the MIC is the lowest concentration found to suppress growth. What is called LD50 is the dose expected to kill half of the subjects tested. The low end stands for greater toxicity, the high end for lower toxicity.

One data set has as its system C. albicans ATCC 10231. In words: MIC. In kind it is cell-based. The conditions noted are these: Candida albicans, ATCC10231; C. albicans ATCC 10231; read-out: MIC.
For another data set, the system named is C. albicans ATCC 28838. Kind of data set: MIC. In kind it is cell-based, Candida albicans. The following applies: Candida albicans, ATCC28838; C. albicans ATCC 28838; read-out: MIC.
The subject of a further data set is C. albicans ATCC 11651. Kind of data set: MIC. In kind it is cell-based, Candida albicans. The conditions noted are these: Candida albicans, ATCC11651; C. albicans ATCC 11651; read-out: MIC.
A further data set concerns C. albicans KCTC 1940. Kind of data set: MIC. Type of data set: cell-based, Candida albicans. The conditions noted are these: Candida albicans, KCTC1940; C. albicans KCTC 1940; read-out: MIC.
The test system of another data set is C. albicans U.K. Kind of data set: MIC. Type of data set: cell-based. The conditions noted are these: Candida albicans; C. albicans U.K.; read-out: MIC.
A further data set has as its system C. albicans OY 019. In words: MIC. In kind it is cell-based, Candida albicans. The following applies: Candida albicans, OY019; C. albicans OY 019; read-out: MIC.
The test system of another data set is C. albicans OY 003. Kind of data set: MIC. In kind it is cell-based, Candida albicans. The conditions noted are these: Candida albicans, OY003; C. albicans OY 003; read-out: MIC.
The next data set concerns C. albicans IFO 1385. Kind of data set: MIC. The conditions noted are these: Candida albicans, IFO1385; C. albicans IFO 1385; read-out: MIC. Type of data set: cell-based, Candida albicans.
Another data set concerns C. parapsilosis. Kind of data set: MIC. In kind it is cell-based. The conditions noted are these: Lodderomyces parapsilosis; C. parapsilosis; read-out: MIC.
A further data set concerns C. glabrata. In words: MIC. Type of data set: cell-based. The following applies: Nakaseomyces glabratus; C. glabrata; read-out: MIC.
For the next data set, the system named is C. glulliermendi. In words: MIC. Type of data set: cell-based. The following applies: C. glulliermendi; read-out: MIC.
The subject of a further data set is C. krusei. In words: MIC. Type of data set: cell-based. The conditions noted are these: Pichia kudriavzevii; C. krusei; read-out: MIC.
In another data set the test system is E. floccosum. In words: MIC. Type of data set: cell-based, Epidermophyton floccosum. The following applies: Epidermophyton floccosum; E. floccosum; read-out: MIC.
Another data set concerns Epidermophyton floccosum. Kind of data set: Antifungal efficacy of creamy formulation against local fungal skin infection. In kind it is in vivo, mouse (SKH/1, hairless, male). The following applies: 0.5% cream, topical. On the procedure: Specific pathogen free SKH/1 male mouse(Hairless) of which weight is 30-35 g and age is 5 weeks, was reared with sterilized water and feed for 12 night/day in the condition of 21-23° C. and of 50% relative humidity. Five mice were allocated by each group. After skin infection, each mouse was taken in separate cage. The strain of microorganism for infection(Epidermophyton floccosum) was cultivated on a flat medium of SDA(Sabouraud Dextrose Agar) for 5-7 days and after confirmation of macrocomidia, 3 ml of RPMI (Rosewell Park Memorial Institute) 1640 media per each flat medium was added thereto and then scraped well using loop to remove hyphae from media. The floating liquid was suspended briefly and then diluted with RPMI 1640 media to adjust the concentration of hyphae to 2×10^6 CFU/ml. Mouse was anesthetized and marked on back site(lumbosacral area) in a shape of circle of which diameter is 1.5 cm. Then, the inner part of marked skin was scratched with sand paper. The scratched part was covered with a filter paper to preserve inoculated microorganism for a long time and thereby stimulating the skin continuously. 0.2 ml of fungus solution of which concentration is adjusted as described above, was inoculated between the skin and filter paper. 5 Days after the inoculation, the filter paper was removed and the infection of skin was examined. The test formulations, 0.5% creamy formulations of the compounds Nos. 62 and 85, 1.0% creamy formulation of Terbinafine(Lamisile cream) and a placebo was applied on the infected areas in a same amount once a day for 5 days. The clinical evaluation on the change of the infected area in 5 days after the inoculation was performed and expressed numerically from 0 to 4. The daily change of the infected area was checked every day. The result of each group was compared with each other.
1: Mild erythema or small number of skin eruption
2: Well-demarcated erythema with scales or mild skin eruption of infected area
3: Wide area of marked skin eruption, scales, swelling or severe skin eruption with partial swelling and scales
4: The same as those of control, or severe skin eruption in entire lesion
The result was calculated as follows;
T: Average score of clinical evaluation in drug treated area
K: Average score of clinical evaluation in placebo control group
Moreover, the antifungal efficacies of the 0.5% creamy formulation of the compounds Nos. 29, 35, 60, 62, 63 and 85, and 1% creamy formulation of Terbinafme (Lamisil cream), which are measured by applying the above formulations on the skin infected with Epidermophyton floccosum of mouse which is the standard animal for the test of local fungal skin infection, i.e, Specific Pathogen Free SKH/1, are described in the following Table 4.

The next data set can be described thus: acute oral toxicity. The following applies: rat, in vivo, po, rats. On the procedure: (§1) Meanwhile, the toxicity test of the compound of the present invention was performed using […]. The compound was suspended in propylene glycol. The resulting suspension was medicated respectively on 5 female rats and 5 male rats(SD) of which age are 5 weeks, via oral after 12 hour starvation. The general symtoms, weight change and lethal case of the above rats were investigated. In cases of tests of the compound Nos. 25, 62, 63 and 85 (delivery of 2,000 mg/kg), the general symtom and weight change were normal and the lethal case was not observed. […] The toxicity data on the compound Nos. 25, 62, 63 and 85 are described in the following Table 5. In light forgoings, the compounds of the present invention are safe in toxicity and have the excellent lethal effect and growth-inhibition effect against fungus.

The next data set relates to rats. Kind of data set: acute oral toxicity. The conditions noted are these: rat, in vivo. Here is the method: as §1
In another data set the test system is salmonella typhimurium. Kind of data set: bacterial reverse mutation test (Ames test). Type of data set: cell-based. On the technique in general: The Ames test detects mutagens through reverse mutation in bacteria.
Data set [1] concerns cultured lung cells derived from chinese hamster. Type of data set: cell-based.
A further data set deals with male ICR mice. The conditions noted are these: mouse, in vivo.
Data set [2] concerns Gram-negative or Gram-positive bacteria, such as Staphylococcus aureus, Staphylococcus hemolyticus, Salmonella typhosa, Shigella dysenteriae, Shigella …. The conditions noted are these: cited from earlier work.

With `CCCOc1cc2c(cc1OCCC)-c1cc3ccc(OCCC)c(OCCC)c3c[n+]1CC2` [compound 85, 2,3,9,10-tetrapropoxy protoberberine iodide], the MIC amounted to 6.25 µg/mL with C. albicans ATCC 10231; 0.78 µg/mL with C. albicans ATCC 28838; 0.4 µg/mL in the data set with C. albicans ATCC 11651; 0.4 µg/mL in the data set with C. albicans KCTC 1940; 50 µg/mL in the data set on C. albicans U.K.; 0.4 µg/mL with C. albicans OY 019. For the same molecule, the MIC in the data set with C. albicans OY 003 was 0.4 µg/mL; in the data set on C. albicans IFO 1385, 6.25 µg/mL; in the data set on C. parapsilosis it was 12.5 µg/mL; with C. glabrata, greater than 100 µg/mL; in the data set on C. glulliermendi, greater than 100 µg/mL; in the data set on C. krusei, 1.56 µg/mL. For the same molecule, the MIC with E. floccosum was greater than 100 µg/mL. Also, the “Efficacy (%) 0 day later” value in the data set on Epidermophyton floccosum is on record as 0%. Moreover, in the data set on Epidermophyton floccosum, the “Efficacy (%) 1 day later” value is recorded as 34.5%. The “Efficacy (%) 2 day later” value in the data set with Epidermophyton floccosum amounted to 38.8%. Besides, in the data set on Epidermophyton floccosum, the “Efficacy (%) 3 day later” value was determined as 42.5%. The “Efficacy (%) 4 day later” value in the data set with Epidermophyton floccosum was 54.6%. In the data set on Epidermophyton floccosum, the “Efficacy (%) 5 day later” value was found to be 63.2%. Also, in the data set with Epidermophyton floccosum, the “Efficacy (%) 6 day later” value is given as 68.0%. For the same molecule, the “Efficacy (%) 7 day later” value in the data set with Epidermophyton floccosum turned out to be 70.5%. The LD50 in “acute oral toxicity” (female) and in the data set “acute oral toxicity” (male) was greater than 5000 mg/kg each time. Moreover, in the data set with rats, the lethal case entry is listed as “not observed”. In addition, the AMES test entry in the data set with salmonella typhimurium is “negative”. Also, in data set [1], the chromosome abnormality test result is “negative”. The “nucleus test (micronucleous test)” value with male ICR mice is “negative”.

Regarding `COc1ccc2c(c1OC)CN1CCc3cc4c(cc3C1C2)OCO4` (centres unmarked) [tetrahydroberberine], in data set [2] (Pitea et al. 1972), the “antibacterial effect of derivatives without quaternary ammonium salt” value is on record as “exhibits less effect”.

On to `COc1ccc2c(Cc3ccc(-c4ccccc4)cc3)c3[n+](cc2c1OC)CCc1cc2c(cc1-3)OCO2` [compound 35, 13-(4-phenylbenzyl)berberine chloride], for which the MIC in the data set on C. albicans ATCC 10231 amounted to 6.25 µg/mL; with C. albicans ATCC 28838, 1.56 µg/mL; in the data set with C. albicans ATCC 11651, 0.78 µg/mL; in the data set on C. albicans KCTC 1940, 0.78 µg/mL; in the data set with C. albicans U.K., 12.5 µg/mL; in the data set on C. albicans OY 019 it was 1.56 µg/mL. In addition, the MIC is 0.78 µg/mL in the data set with C. albicans OY 003; 6.25 µg/mL in the data set with C. albicans IFO 1385; greater than 100 µg/mL in the data set on C. parapsilosis; greater than 100 µg/mL in the data set on C. glabrata; 12.5 µg/mL in the data set with C. glulliermendi; 3.12 µg/mL in the data set with C. krusei. Also, the MIC in the data set with E. floccosum amounted to 12.5 µg/mL. Further, the “Efficacy (%) 0 day later” value with Epidermophyton floccosum worked out at 0%. For the same molecule, the “Efficacy (%) 1 day later” value with Epidermophyton floccosum turned out to be 36.0%. The “Efficacy (%) 2 day later” value in the data set with Epidermophyton floccosum came to 57.9%. Also, the “Efficacy (%) 3 day later” value in the data set with Epidermophyton floccosum was 68.4%. Further, the “Efficacy (%) 4 day later” value in the data set on Epidermophyton floccosum is 72.2%. Moreover, the “Efficacy (%) 5 day later” value in the data set with Epidermophyton floccosum worked out at 74.0%. The “Efficacy (%) 6 day later” value in the data set on Epidermophyton floccosum was 75.4%. Moreover, the “Efficacy (%) 7 day later” value in the data set with Epidermophyton floccosum was determined as 76.8%.

Turning to `COc1ccc2cc3[n+](cc2c1OC)CCc1cc2c(cc1-3)OCO2` [Berberine chloride], the antibacterial activity entry in data set [2] (Ukita et al. 1949) was “exhibits antibacterial activity”.

Take `COc1ccc2c(Cc3cccc(C(F)(F)F)c3)c3[n+](cc2c1OC)CCc1cc2c(cc1-3)OCO2` [compound 25, 13-(3-trifluoromethylbenzyl)berberine chloride]: the LD50 in the data set “acute oral toxicity” (female) is greater than 2500 mg/kg; in “acute oral toxicity” (male), greater than 3000 mg/kg. Further, in the data set with rats, the lethal case result is recorded as “not observed”. Further, the AMES test entry in the data set with salmonella typhimurium is recorded as “negative”. In data set [1], the chromosome abnormality test entry is listed as “negative”. Moreover, the “nucleus test (micronucleous test)” value in the data set on male ICR mice is recorded as “negative”.

As for `COc1ccc2c(Cc3ccc(C(C)C)cc3)c3[n+](cc2c1OC)CCc1cc2c(cc1-3)OCO2` [compound 63, 13-(4-i-propylbenzyl)berberine chloride], the MIC in the data set on C. albicans ATCC 10231 amounted to 6.25 µg/mL; in the data set on C. albicans ATCC 28838, 0.78 µg/mL; in the data set on C. albicans ATCC 11651, 0.78 µg/mL; in the data set with C. albicans KCTC 1940, 1.56 µg/mL; in the data set on C. albicans U.K., 6.25 µg/mL; with C. albicans OY 019, 1.56 µg/mL. Besides, the MIC in the data set on C. albicans OY 003 was 6.25 µg/mL; with C. albicans IFO 1385, 6.25 µg/mL; in the data set with C. parapsilosis, greater than 100 µg/mL; in the data set with C. glabrata, greater than 100 µg/mL; in the data set on C. glulliermendi it was 12.5 µg/mL; with C. krusei, 3.12 µg/mL. The MIC with E. floccosum was 12.5 µg/mL. Besides, the “Efficacy (%) 0 day later” value in the data set on Epidermophyton floccosum stood at 0%. For the same molecule, in the data set with Epidermophyton floccosum, the “Efficacy (%) 1 day later” value is listed as 42.5%. Further, the “Efficacy (%) 2 day later” value with Epidermophyton floccosum amounted to 52.5%. For the same molecule, the “Efficacy (%) 3 day later” value with Epidermophyton floccosum was 59.8%. Also, the “Efficacy (%) 4 day later” value in the data set on Epidermophyton floccosum amounted to 64.6%. Further, the “Efficacy (%) 5 day later” value in the data set with Epidermophyton floccosum was determined as 73.6%. Further, in the data set with Epidermophyton floccosum, the “Efficacy (%) 6 day later” value stood at 75.6%. Further, the “Efficacy (%) 7 day later” value in the data set on Epidermophyton floccosum is recorded as 80.2%. Besides, the figures for the 50% lethal dose (LD50) in the data set “acute oral toxicity” (female) and in “acute oral toxicity” (male) were greater than 2000 mg/kg and greater than 2500 mg/kg, respectively. The lethal case result in the data set with rats is recorded as “not observed”. Besides, the AMES test entry with salmonella typhimurium is “negative”. In addition, the chromosome abnormality test result in [1] is “negative”. The “nucleus test (micronucleous test)” value in the data set on male ICR mice was “negative”.
